US11225481B2 (Centre national de la recherche scientifique, priority 2015, dated 2022)
Where “and” joins values, the source holds several entries; their conditions need not be identical. Identical values can stand only once. Like-named read-outs stand apart in the source and are kept apart here.

Columns and labels:
ATAD2 = biological target: T1, ATAD2 (Homo sapiens, UniProt Q6PL18); test: HTRF bromodomain selectivity profile, non-BET control; type: binding; details: non-BET family member bromodomain control
T1 construct: GST tagged bromodomain proteins were purchased from BPS Bioscience; purchased BPS Bioscience
T1 sequence (Q6PL18 980-1092 limits assumed): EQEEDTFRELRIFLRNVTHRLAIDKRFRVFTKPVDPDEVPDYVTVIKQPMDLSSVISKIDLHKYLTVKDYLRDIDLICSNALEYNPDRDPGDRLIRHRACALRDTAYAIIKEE
Protocol: (§1) HTRF assays were performed in white 384 Well Small Volume™ HiBase Polystyrene Microplates (Greiner) with a total working volume of 20 μL. Compounds were dispensed, with 200 nL per well (1% final DMSO), from a concentration stock of 1 mM in 100% DMSO and with serial DMSO dilutions, using a Mosquito Crystal pipetting robot platform (TTP labtech). The IC50 measurements were performed in triplicates (Table 2 and 3). All HTRF reagents were purchased from CisBio Bioassays and reconstituted according to the supplier protocols. For each assay 14.7 μL of mix 1 (protein+peptide) is added in the assay wells, containing previously dispensed inhibitors, according to the final concentration and buffer described in Table 4, using a Biomek NX MC pipetting robot (Beckman). Then, 5.1 μL of mix 2 (donnor+acceptor) is added. HTRF signals were measured, after a final incubation (overnight at room temperature), using a PHERAstar FS (BMG Labtech) with an excitation filter at 337 nm and fluorescence wavelength measurement at 620 and 665 nm, an integration delay of 60 μs and an integration time of 500 μs. Results were analyzed with a two-wavelengths signal ratio: [intensity (665 nm)/intensity (620 nm)]*10^4. Percentage of inhibition was calculated using the following equation: % inhibition=[(compound signal)−(min signal)]/[(max signal)−(min signal)]*100, where ‘max signal’ is the signal ratio with the compound vehicle alone (DMSO) and ‘min signal’ the signal ratio without peptide.
(§2) Selectivity profiles of bromodomain inhibitors were performed as described in HTRF screen section. […] HTRF detection reagents (EPIgeneous™ Binding Domain kits) were purchased from Cisbio Bioassays and used according to supplier's protocol. GST tagged bromodomain proteins were purchased from BPS Bioscience and histone peptide from Anaspec.

BRD2(BD2) = biological target: T2, BRD2(BD2) (Homo sapiens, UniProt P25440); test: HTRF bromodomain selectivity profile; type: binding; details: Table 3 selectivity profile
T2 construct: purchased BPS Bioscience
T2 sequence (P25440 344-453 limits assumed): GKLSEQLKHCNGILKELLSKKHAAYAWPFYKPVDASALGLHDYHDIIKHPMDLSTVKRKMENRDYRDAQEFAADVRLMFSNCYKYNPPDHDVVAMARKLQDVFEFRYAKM
Protocol: as §1, §2

BRDT(BD1) = biological target: T3, BRDT(BD1) (Homo sapiens, UniProt Q58F21); test: HTRF bromodomain selectivity profile; type: binding; details: Table 3 selectivity profile
T3 construct: purchased BPS Bioscience
Protocol: as §1, §2

BRD2(BD1) = biological target: T4, BRD2(BD1) (Homo sapiens, UniProt P25440); test: HTRF bromodomain selectivity profile; type: binding; details: Table 3 selectivity profile
T4 construct: purchased BPS Bioscience
T4 sequence (P25440 74-180 limits assumed): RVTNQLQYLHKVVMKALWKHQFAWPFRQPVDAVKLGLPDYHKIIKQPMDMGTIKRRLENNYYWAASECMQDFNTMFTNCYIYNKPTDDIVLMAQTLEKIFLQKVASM
Protocol: as §1, §2

BRD4(BD2) = biological target: T5, BRD4(BD2) (Homo sapiens, UniProt O60885); test: HTRF bromodomain selectivity profile; type: binding; details: Table 3 selectivity profile
T5 construct: purchased BPS Bioscience
Protocol: as §1, §2

BRD3(BD2) = biological target: T6, BRD3(BD2) (Homo sapiens, UniProt Q15059); test: HTRF bromodomain selectivity profile; type: binding; details: Table 3 selectivity profile
T6 construct: purchased BPS Bioscience
T6 sequence (Q15059 306-415 limits assumed): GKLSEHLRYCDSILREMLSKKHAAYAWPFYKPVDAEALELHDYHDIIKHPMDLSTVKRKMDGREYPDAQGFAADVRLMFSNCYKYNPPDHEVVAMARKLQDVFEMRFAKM
Protocol: as §1, with “Compounds” for “HTRF assays were performed in white 384 Well Small Volume™ HiBase Polystyrene Microplates (Greiner) with a total working volume of 20 μL. Compounds”, “The IC50 measurements were performed in triplicates (Table 2 and 3).” left out, “[intensity (665 nm)/intensity (620 nm)]*10^4.” left out, “peptide. For IC50 measurements, values were normalized and fitted with Prism (GraphPad software) using the following equation: […] Selectivity profiles of bromodomain inhibitors were performed as described in HTRF screen section. […] HTRF detection reagents (EPIgeneous™ Binding Domain kits) were purchased from Cisbio Bioassays and used according to supplier's protocol. GST tagged bromodomain proteins were purchased from BPS Bioscience and histone peptide from Anaspec. [table]” for “peptide.”

BRD3(BD1) = biological target: T7, BRD3(BD1) (Homo sapiens, UniProt Q15059); test: HTRF bromodomain selectivity profile; type: binding; details: Table 3 selectivity profile
T7 construct: purchased BPS Bioscience
T7 sequence (Q15059 34-140 limits assumed): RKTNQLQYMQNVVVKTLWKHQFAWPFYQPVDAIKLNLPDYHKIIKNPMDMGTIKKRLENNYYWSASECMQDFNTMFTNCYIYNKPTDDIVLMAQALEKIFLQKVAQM
Protocol: as §1, with “Compounds” for “HTRF assays were performed in white 384 Well Small Volume™ HiBase Polystyrene Microplates (Greiner) with a total working volume of 20 μL. Compounds”, “The IC50 measurements were performed in triplicates (Table 2 and 3).” left out, “[intensity (665 nm)/intensity (620 nm)]*10^4.” left out, “peptide. For IC50 measurements, values were normalized and fitted with Prism (GraphPad software) using the following equation: […] Selectivity profiles of bromodomain inhibitors were performed as described in HTRF screen section. […] HTRF detection reagents (EPIgeneous™ Binding Domain kits) were purchased from Cisbio Bioassays and used according to supplier's protocol. GST tagged bromodomain proteins were purchased from BPS Bioscience and histone peptide from Anaspec. [table]” for “peptide.”

BRD4(BD1) [1] = biological target: T8, BRD4(BD1) (Homo sapiens, UniProt O60885); test: Isothermal Titration Calorimetry; type: binding
T8 construct: a BRD4(BD1) synthetic gene that includes a TEV cleavage site was purchased from LifeTechnology; made in house
Excerpt: (§3) For Isothermal Titration Calorimetry (ITC) and crystallogenesis, BRD4(BD1) was produced and purified using a histidine tag affinity chromatography as described by Filipakopoulos et al.9 For these experiments, a pNIC28-BSA4 expression vector containing BRD4(BD1) and a Tobacco Etch Virus (TEV) protease cleavage site have kindly been provided by Stefan Knapp laboratory from the SGC at the University of Oxford. After size exclusion chromatography, the fractions presenting pure BRD4(BD1) after TEV cleavage of the histidine tag were pooled and concentrated to 25 mg/mL for crystallogenesis. For ITC assays, the protein was concentrated up to at 6 mg/mL and the DTT was removed using a buffer exchange column (PD10 from GE healthcare) equilibrated with 10 mM HEPES pH=7.5, 150 mM NaCl. For Homogeneous Time Resolved Fluorimetry (HTRF) experiments, a BRD4(BD1) synthetic gene that includes a TEV cleavage site was purchased from LifeTechnology in a pDONR transport vector before cloning into a pDESTTM15 expression vector for GST affinity purification. Protein production and purification was carried out using similar protocols and buffers as used for the His-BRD4(BD1) system. Purification was carried on GST affinity resin (Thermo Scientific) and reduced glutathione was used for protein release. GST-BRD4(BD1) was further purified by size exclusion chromatography on a Superdex 16/60 Hiload column (GE Healthcare) using 20 mM TRIS pH=8.0, 150 mM NaCl Buffer.
ITC was used to evaluate the thermodynamics parameters of the binding between BRD4(BD1) and the selected compounds, using ITC conditions previously described by Filippakopoulos et al.8 Purified BRD4(BD1) was extensively dialyzed in the ITC buffer containing 10 mM Hepes pH=7.5 and 150 mM NaCl. Compounds were diluted directly in the last protein dialysate prior to experiments. Titrations were carried out on a MicroCal ITC200 microcalorimeter (GE Healthcare, Piscataway, N.J.). Each experiment was designed using a titrant concentration (protein in the syringe) set 10 to 15 times the analyte concentration (compound in the cell generally between 10 and 35 μM) and using 13 injections at 35° C. A first small injection (generally 0.2 μL) was included in the titration protocol in order to remove air bubbles trapped in the syringe prior titration. Raw data were scaled after setting the zero to the titration saturation heat value. Integrated raw ITC data were fitted to a one site non-linear least squares fit model using the MicroCal Origin plugin as implemented in Origin 7 (Origin Lab). Finally, ΔG and TΔS values were calculated from the fitted ΔH and KA values using the equations ΔG=−R.T. ln KA and ΔG=ΔH−TΔS.

BET bromodomains = test: Selectivity profile across BET bromodomains (HTRF); type: binding; details: in words
Protocol: as §2

BRD4(BD1) [2] = biological target: T8, BRD4(BD1); test: HTRF assay, disruption of bromodomain/histone peptide interaction; type: binding; details: for LE (Ligand Efficiency): LE = 1.4(−log(IC50)/N), BRD4(BD1)
Protocol: as §1, §3

acute leukemia = details: patients, phase I acute leukemia study; cited from earlier work
[3] = system: BD2 domain of BRD2 and BRD3; details: cited from earlier work
[4] = HTRF, Table 1′, TABLE 2, read-out: BRD4(BD1) IC50
[5] = HTRF, mean ± SD of three experiments, Table 2, read-out: IC50 μM, effect on BRD4(BD1) activity
[6] = Table 3 selectivity profile, mean ± SD of three experiments, read-out: IC50 (μM) BRD4(BD1)

## CCn1cnc2c1c(=O)[nH]c(=O)n2Cc1ccc(Cl)cc1 [Compound 7a]
ATAD2
  IC50: > 100 µM
BRD2(BD2)
  IC50: 1.6 ± 0.2 µM
BRDT(BD1)
  IC50: 2.3 ± 0.2 µM
BRD2(BD1)
  IC50: 4.7 ± 0.1 µM
BRD4(BD2)
  IC50: 1.9 ± 0.1 µM
BRD3(BD2)
  IC50: 1.8 ± 0.2 µM
BRD3(BD1)
  IC50: 1.8 ± 1.1 µM
BRD4(BD1) [1]; ITC, BRD4(BD1)
  enthalpy change: -6.3 kcal/mol
BRD4(BD1) [1]; Isothermal Titration Calorimetry
  Kd: 1.8 µM
BET bromodomains
  selectivity profile among BET bromodomains: pan-BET inhibition profile
BRD4(BD1) [2]; HTRF IC50 BRD4(BD1)
  fold increased potency (7a vs 6a): 2 fold
BRD4(BD1) [2]; [4]
  IC50: 2.6 µM
BRD4(BD1) [2]; [5]
  IC50: 2.6 µM
BRD4(BD1) [2]
  LE (Ligand Efficiency): 0.37
BRD4(BD1) [2]; [6]
  IC50: 2.6 ± 0.1 µM

## CCn1c(CSc2n[nH]c(N)n2)nc2c1c(=O)[nH]c(=O)n2Cc1ccc(Cl)cc1 [Compound 22a, 8-(5-Amino-1H-[1,2,4]triazol-3-ylsulfanylmethyl)-3-(4-chlorobenzyl)-7-ethyl-3,7-dihydro-purine-2,6-dione]
BRD2(BD1)
  IC50: 30 ± 0.9 µM
BRD3(BD1)
  IC50: 31.7 ± 1.1 µM
BET bromodomains
  selectivity profile among BET bromodomains: shift of selectivity towards BET-BD1 domains
BRD4(BD1) [2]; HTRF IC50 BRD4(BD1)
  fold decrease in potency as compared to 7a: 10 fold
BRD4(BD1) [2]; [4]
  IC50: 26.4 µM
BRD4(BD1) [2]; [5]
  IC50: 26.4 µM
BRD4(BD1) [2]
  LE (Ligand Efficiency): 0.17
BRD4(BD1) [2]; [6]
  IC50: 26.4 ± 0.7 µM

## Cn1cnc2c1c(=O)[nH]c(=O)n2Cc1ccc(Cl)cc1 [Compound 4b]
BRD2(BD2)
  IC50: 7 µM
BRDT(BD1)
  IC50: 27 µM
BRD2(BD1)
  IC50: > 100 µM
BRD4(BD2)
  IC50: 5 µM
BRD3(BD2)
  IC50: 4 µM
BRD3(BD1)
  IC50: 14 µM
BRD4(BD1) [2]; [5]
  IC50: 9 µM

## CCn1c(CSc2nc3nc(C)cc(C)n3n2)nc2c1c(=O)[nH]c(=O)n2Cc1ccc(Cl)cc1 [Compound 25a]
ATAD2
  IC50: > 100 µM
BRD2(BD2)
  IC50: > 100 µM
BRDT(BD1)
  IC50: 65.3 ± 8.1 µM
BRD2(BD1)
  IC50: 30.1 ± 1.3 µM
BRD4(BD2)
  IC50: > 100 µM
BRD3(BD2)
  IC50: 23.9 ± 1.4 µM
BRD3(BD1)
  IC50: 40.7 ± 2.2 µM
BRD4(BD1) [2]; [5]
  IC50: 12.6 µM

## Cc1sc2c(c1C)C(c1ccc(Cl)cc1)=N[C@@H](CC(=O)Nc1ccc(O)cc1)c1nnc(C)n1-2 [OTX015, (6S)-4-(4-chlorophenyl)-N-(4-hydroxyphenyl)-2,3,9-trimethyl-6H-thieno[3,2-f][1,2,4]triazolo[4,3-a][1,4]diazepine-6-acetamide]
Acute leukemia
  clinical response: induced remissions, including complete remission in two patients with refractory disease

## CCCCc1c(C)nc2nc(SCc3nc4c(c(=O)[nH]c(=O)n4Cc4ccc(Cl)cc4)n3CC)nn2c1C [Compound 27b, 8-(6-Butyl-5,7-dimethyl-[1,2,4]triazolo[1,5-a]pyrimidin-2-ylsulfanylmethyl)-3-(4-chlorobenzyl)-7-ethyl-3,7-dihydro-purine-2,6-dione]
BET bromodomains
  selectivity profile among BET bromodomains: selective towards BRD4(BD1)
BRD4(BD1) [2]; [4]
  IC50: 20 µM and 20.4 µM
BRD4(BD1) [2]; [5]
  IC50: 20.4 µM
BRD4(BD1) [2]
  LE (Ligand Efficiency): 0.15
BRD4(BD1) [2]; [6]
  IC50: 20.4 ± 3.6 µM

## COc1cc(OC)c2c(=O)[nH]c(-c3cc(C)c(OCCO)c(C)c3)nc2c1 [RVX-208, 2-[4-(2-hydroxyethoxy)-3,5-dimethylphenyl]-5,7-dimethoxy-4(3H)-quinazolinone]
[3]
  bromodomain binding preference: binds preferentially to the BD2 domain of BRD2 and BRD3

## CCc1cc(CC)n2nc(SCc3nc4c(c(=O)[nH]c(=O)n4Cc4ccc(Cl)cc4)n3CC)nc2n1 [Compound 26a]
ATAD2
  IC50: 56.4 ± 7.9 µM
BRD2(BD2)
  IC50: 9.5 ± 0.5 µM
BRDT(BD1)
  IC50: 42.5 ± 3.9 µM
BRD2(BD1)
  IC50: 31.9 ± 0.5 µM
BRD4(BD2)
  IC50: > 100 µM
BRD3(BD2)
  IC50: 2.1 ± 0.5 µM
BRD3(BD1)
  IC50: 43.5 ± 7.1 µM
BRD4(BD1) [2]; [5]
  IC50: 7.9 µM

## CCCCn1c(=O)[nH]c(=O)c2c1ncn2CC [Compound 6a, 3-Butyl-7-ethylxanthine]
ATAD2
  IC50: > 100 µM
BRD2(BD2)
  IC50: 6.6 ± 0.3 µM
BRDT(BD1)
  IC50: 7.9 ± 0.4 µM
BRD2(BD1)
  IC50: 18.8 ± 0.7 µM
BRD4(BD2)
  IC50: 8.1 ± 0.3 µM
BRD3(BD2)
  IC50: 5.8 ± 0.2 µM
BRD3(BD1)
  IC50: 4.8 ± 0.3 µM
BET bromodomains
  selectivity profile among BET bromodomains: pan-BET inhibition profile
BRD4(BD1) [2]; [4]
  IC50: 13 ± 0.3 µM
BRD4(BD1) [2]; [5]
  IC50: 13 µM
BRD4(BD1) [2]
  LE (Ligand Efficiency): 0.40
BRD4(BD1) [2]; [6]
  IC50: 13 ± 0.3 µM
